Results from ChEMBL document CHEMBL1157077, “Gneyulins A and B, stilbene trimers, and noidesols A and B, dihydroflavonol-C-glucosides, from the bark of Gnetum gnemonoides” (J Nat Prod, 2010).

Legend:
[1] = biological target: T1, Sodium/glucose cotransporter 1 (Homo sapiens, UniProt P13866); test: Inhibition of SGLT1 transfected in african green monkey COS1 cells assessed as alpha-D-[U-14C]glucopyranoside uptake after 30 mins by scintillation counting; assay type: cell-based, COS-1
T1 sequence (P13866 whole entry): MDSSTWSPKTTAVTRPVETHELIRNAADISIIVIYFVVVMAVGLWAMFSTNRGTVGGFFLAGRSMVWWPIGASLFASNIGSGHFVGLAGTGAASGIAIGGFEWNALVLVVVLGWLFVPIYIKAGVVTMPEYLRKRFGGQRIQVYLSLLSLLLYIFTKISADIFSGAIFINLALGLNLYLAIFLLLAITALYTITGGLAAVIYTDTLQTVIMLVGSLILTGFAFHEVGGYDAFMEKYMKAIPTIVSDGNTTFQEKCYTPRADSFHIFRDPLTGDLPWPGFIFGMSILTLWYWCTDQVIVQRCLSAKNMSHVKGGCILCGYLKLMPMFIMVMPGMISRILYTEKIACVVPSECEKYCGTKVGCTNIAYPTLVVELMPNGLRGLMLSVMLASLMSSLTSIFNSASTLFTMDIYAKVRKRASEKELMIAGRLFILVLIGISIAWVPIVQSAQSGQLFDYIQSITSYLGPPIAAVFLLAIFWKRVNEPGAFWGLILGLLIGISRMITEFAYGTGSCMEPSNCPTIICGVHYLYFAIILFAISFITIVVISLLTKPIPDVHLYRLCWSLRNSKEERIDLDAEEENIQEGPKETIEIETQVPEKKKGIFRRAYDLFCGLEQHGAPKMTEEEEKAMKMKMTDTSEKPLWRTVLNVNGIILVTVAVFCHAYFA

[2] = biological target: T2, Sodium/glucose cotransporter 2 (Homo sapiens, UniProt P31639); test: Inhibition of SGLT2 transfected in african green monkey COS1 cells assessed as alpha-D-[U-14C]glucopyranoside uptake after 30 mins by scintillation counting; assay type: cell-based, COS-1
T2 sequence (P31639 whole entry): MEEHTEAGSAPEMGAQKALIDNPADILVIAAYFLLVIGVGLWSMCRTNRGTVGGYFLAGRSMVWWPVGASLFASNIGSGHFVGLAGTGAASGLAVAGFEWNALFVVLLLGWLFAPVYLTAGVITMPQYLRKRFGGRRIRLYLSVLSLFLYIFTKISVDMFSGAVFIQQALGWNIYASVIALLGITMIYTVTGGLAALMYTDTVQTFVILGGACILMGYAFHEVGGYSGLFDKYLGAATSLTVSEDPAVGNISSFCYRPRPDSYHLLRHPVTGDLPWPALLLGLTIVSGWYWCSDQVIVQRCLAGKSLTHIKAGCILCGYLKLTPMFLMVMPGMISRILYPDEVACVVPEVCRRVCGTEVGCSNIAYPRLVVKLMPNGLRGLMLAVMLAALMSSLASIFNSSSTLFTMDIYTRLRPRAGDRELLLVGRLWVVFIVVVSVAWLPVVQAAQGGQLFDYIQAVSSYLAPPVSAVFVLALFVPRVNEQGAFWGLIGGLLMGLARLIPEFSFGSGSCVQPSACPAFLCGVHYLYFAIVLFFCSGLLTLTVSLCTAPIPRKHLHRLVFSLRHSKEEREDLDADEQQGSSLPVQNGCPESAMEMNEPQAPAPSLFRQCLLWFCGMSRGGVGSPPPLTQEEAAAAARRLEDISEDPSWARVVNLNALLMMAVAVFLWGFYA

| Compound | IC50 ([1]; read-out: IC50) | IC50 ([2]; read-out: IC50) | IC50 ([1]; cos-1) | IC50 ([2]; cos-1) |
| --- | --- | --- | --- | --- |
| Oc1cc(O)cc([C@@H]2c3cc([C@@H]4Oc5cc(/C=C/c6ccc(O)cc6O)cc(O)c5[C@H]4c4cc(O)cc(O)c4)c(O)cc3O[C@H]2c2ccc(O)cc2O)c1 [GNEYULIN A] | 27 µM | 25 µM |  |  |
| COc1cc(O)c2c(c1[C@@H]1O[C@H](CO)[C@@H](O)[C@H](O)[C@H]1O)O[C@H](c1ccc(O)c(O)c1)[C@@H](O)C2=O [NOIDESOL A] |  |  | Not Active | Not Active |
| COc1ccc([C@H]2Oc3cc(O)c([C@@H]4O[C@H](CO)[C@@H](O)[C@H](O)[C@H]4O)c(O)c3C(=O)[C@@H]2O)cc1O [NOIDESOL B] |  |  | Not Active | Not Active |
| Oc1cc(O)cc([C@@H]2c3cc([C@@H]4Oc5cc(-c6cc7ccc(O)cc7o6)cc(O)c5[C@H]4c4cc(O)cc(O)c4)c(O)cc3O[C@H]2c2ccc(O)cc2O)c1 [GNEYULIN B] | 37 µM | 18 µM |  |  |
